{"source": "patent US10881060B2", "about": "“Endophytes and related methods” (Agriculture Victoria Services PTY LTD, priority 2010, dated 2021)", "tested_on": "N. lolii (strain ST) mycelia", "test": "Colchicine kill curve of endophyte mycelia", "type": "cell-based", "conditions": "grown 21 days", "procedure": "Experiments were conducted to determine the range of colchicine concentrations in which the mycelia of the fungal endophyte N. lolii (strain ST) would grow successfully. Mycelia were grown in colchicine concentrations ranging from 0% to 1% for 21 days and monitored for growth (FIG. 15). At greater than or equal to 0.2% colchicine mycelium growth halted whereas at 0.1% or less colchicine mycelium growth was prolific."}
{"smiles": "COc1cc2c(c(OC)c1OC)-c1ccc(OC)c(=O)cc1[C@@H](NC(C)=O)CC2", "note": "[colchicine]", "values": [{"measurement": "Colchicine concentration at which mycelium growth halted", "value": "greater than or equal to 0.2%"}, {"measurement": "Colchicine concentration at which mycelium growth was prolific", "value": "≤ 0.1", "unit": "%"}]}
